Where two headings read alike, the source gives them in different places.
Key:
KRAS G12C = KRAS G12C (Homo sapiens, UniProt P01116, G12C); assay: GDP-GTP exchange assay (KRAS_G12C exchange assay); type: biochemical; details: bodipy-loaded KRAS G12C 2.5 nM, SOS1 150 nM, 2 hours pre-incubation with inhibitor; read-out: G12C_exchange
Procedure: The inhibitor potency of the exemplified compounds was determined in a fluorescence based guanine nucleotide exchange assay, which measures the exchange of bodipy-GDP (fluorescently labeled GDP) for GppNHp (Non-hydrolyzable GTP analog) to generate the active state of KRAS in the presence of SOS1 (guanine nucleotide exchange factor). Inhibitors were serially diluted in DMSO and a volume of 0.1 μL was transferred to the wells of a black low volume 384-well plate. 5 μL/well volume of bodipy-loaded KRAS G12C diluted to 5 nM in assay buffer (25 mM Hepes pH 7.5, 50 mM NaCl, 10 mM MgCl2 and 0.01% Brij-35) was added to the plate and pre-incubated with inhibitor for 2 hours at ambient temperature. Appropriate controls (enzyme with no inhibitor or with a G12C inhibitor (AMG-510)) were included on the plate. The exchange was initiated by the addition of a 5 μL/well volume containing 1 mM GppNHp and 300 nM SOS1 in assay buffer. The 10 μL/well reaction concentration of the bodipy-loaded KRAS G12C, GppNHp, and SOS1 were 2.5 nM, 500 uM, and 150 nM, respectively. The reaction plates were incubated at ambient temperature for 2 hours, a time estimated for complete GDP-GTP exchange in the absence of inhibitor. For the KRAS G12D and G12V mutants, similar guanine nucleotide exchange assays were used with 2.5 nM as final concentration for the bodipy loaded KRAS proteins and with 4 hours and 3 hours incubation after adding GppNHp-SOS1 mixture for G12D and G12V respectively. A cyclic peptide described to selectively bind G12D mutant (Sakamoto et al., BBRC 484.3 (2017), 605-611) or internal compounds with confirmed binding were used as positive controls in the assay plates. Fluorescence intensities were measured on a PheraStar plate reader instrument (BMG Labtech) with excitation at 485 nm and emission at 520 nm.
Either GraphPad prism or Genedata Screener SmartFit was used to analyze the data. The IC50 values were derived by fitting the data to a four parameter logistic equation producing a sigmoidal dose-response curve with a variable Hill coefficient.

KRAS_G12C pERK = assay: Cellular pERK HTRF assay (KRAS_G12C pERK assay); type: cell-based, human; details: KRAS G12C cells, 4 hours incubation with compound, read-out: G12C_pERK
Procedure: MIA PaCa-2 (KRAS G12C; ATCC® CRL-1420), NCI-H358 (KRAS G12C; ATCC® CRL-5807), A427 (KRAS G12D; ATCC® HTB53), HPAFII (KRAS G12D; ATCC® CRL-1997), YAPC (KRAS G12V; DSMZ ACC382), SW480 (KRAS G12V; ATCC® CRL-228) and NCI-H838 (KRAS WT; ATCC® CRL-5844) cells are purchased from ATCC and maintained in RPMI 1640 media supplemented with 10% FBS (Gibco/Life Technologies). The cells are plated at 5000 cells per well (8 uL) into Greiner 384-well low volume, flat-bottom, and tissue culture treated white plates and incubated overnight at […], 5% CO2. The next morning, test compound stock solutions are diluted in media at 3× the final concentration and 4 uL are added to the cells, with a final concentration of 0.1% of DMSO. The cells are incubated with the test compounds for 4 hours (G12C and G12V) or 2 hrs (G12D) at 37° C., 5% CO2. Four uL of 4× lysis buffer with blocking reagent (Cisbio) are added to each well and plates are rotated gently (300 rpm) for 30 minutes at room temperature. Four uL per well of Cisbio anti Phospho-ERK 1/2 d2 is mixed with anti Phospho-ERK 1/2 Cryptate (1:1), and added to each well, incubated overnight in the dark at room temperature. Plates are read on the Pherastar plate reader at 665 nm and 620 nm wavelengths. Data are analyzed in Genedata Screener using SmartFit for IC50 values.

[1] = test system: KRAS_G12C pERK in MIA PaCa-2 cells; assay: Whole Blood pERK1/2 HTRF assay (KRAS_G12C WB pERK assay); type: cell-based, human; details: compound in whole blood, 4 hours, read-out: G12C_WB_pERK
Procedure: MIA PaCa-2 cells (KRAS G12C; ATCC® CRL-1420), HPAF-II (KRAS G12D; ATCC® CRL-1997) and YAPC (KRAS G12V; DSMZ ACC382) are maintained in RPMI 1640 with 10% FBS (Gibco/Life Technologies). For MIA PaCa-2 assay, cells are seeded into 96 well tissue culture plates (Corning #3596) at 25000 cells per well in 100 uL media and cultured for 2 days at 37° C., 5% CO2 before the assay. For HPAF-II and YAPC assay, cells are seeded in 96 well tissue culture plates at 50000 cells per well in 100 uL media and cultured for 1 day before the assay. Whole Blood are added to the 1 uL dots of compounds (prepared in DMSO) in 96 well plates and mixed gently by pipetting up and down so that the concentration of the compound in blood is 1× of desired concentration, in 0.5% DMSO. The media is aspirated from the cells and 50 uL per well of whole blood with test compound is added and incubated for 4 hours for MIA PaCa and YAPC assay; or 2 hours for HPAF-II assay, respectively at 37° C., 5% CO2. After dumping the blood, the plates are gently washed twice by adding PBS to the side of the wells and dumping the PBS from the plate onto a paper towel, tapping the plate to drain well. Fifty ul/well of 1× lysis buffer #1 (Cisbio) with blocking reagent (Cisbio) and Benzonase nuclease (Sigma Cat #E1014-5KU, 1:10000 final concentration) is then added and incubated at room temperature for 30 minutes with shaking (250 rpm). Following lysis, 16 uL of lysate is transferred into 384-well Greiner small volume white plate using an Assist Plus (Integra Biosciences, NH). Four uL of 1:1 mixture of anti Phospho-ERK 1/2 d2 and anti Phospho-ERK 1/2 Cryptate (Cisbio) is added to the wells using the Assist Plus and incubated at room temperature overnight in the dark. Plates are read on the Pherastar plate reader at 665 nm and 620 nm wavelengths. Data are analyzed in Genedata Screener using SmartFit for IC50 values.

[2] = Human whole blood stability; type: in vitro ADME; details: percent remaining at 4 hr, 1 μM, 37° C.
Procedure: The whole blood stability of the exemplified compounds was determined by LC-MS/MS. The 96-Well Flexi-Tier™ Block (Analytical Sales & Services, Inc, Flanders, NJ) is used for the incubation plate containing 1.0 mL glass vials with 0.5 mL of blood per vial (pooled gender, human whole blood sourced from BIOIVT, Hicksville, NY or similar). Blood is pre-warmed in water bath to 37° C. for 30 minutes. 96-deep well analysis plate is prepared with the addition of 100 μL ultrapure water/well. 50 μL chilled ultrapure water/well is added to 96-deep well sample collection plate and covered with a sealing mat. 1 μL of 0.5 mM compound working solution (DMSO:water) is added to the blood in incubation plate to reach final concentrations of 1 μM, mixed by pipetting thoroughly and 50 μL is transferred 50 into the T=0 wells of the sample collection plate. Blood is allowed to sit in the water for 2 minutes and then 400 μL stop solution/well is added (acetonitrile containing an internal standard). The incubation plate is placed in the Incu-Shaker CO2 Mini incubator (Benchmark Scientific, Sayreville, NJ) at 37° C. with shaking at 150 rpm. At 1, 2 and 4-hr, the blood samples are mixed thoroughly by pipetting and 50 μL is transferred into the corresponding wells of the sample collection plate. Blood is allowed to sit in the water for 2 minutes and then 400 μL of stop solution/well is added. The collection plate is sealed and vortexed at 1700 rpm for 3 minutes (VX-2500 Multi-Tube Vortexer, VWR International, Radnor, PA), and samples are then centrifuged in the collection plate at 3500 rpm for 10 minutes (Allegra X-14R Centrifuge Beckman Coulter, Indianapolis, IN). 100 μL of supernatant/well is transferred from the sample collection plate into the corresponding wells of the analysis plate. The final plate is vortexed at 1700 rpm for 1 minute and analyze samples by LC-MS/MS. The peak area ratio of the 1, 2, and 4 hr samples relative to T=0 is used to determine the percent remaining. The natural log of the percent remaining versus time is used determine a slope to calculate the compounds half-life in blood (t1/2=0.693/slope).

KRAS G12C, sequence (P01116 1-188 isoform P01116-2 G12C): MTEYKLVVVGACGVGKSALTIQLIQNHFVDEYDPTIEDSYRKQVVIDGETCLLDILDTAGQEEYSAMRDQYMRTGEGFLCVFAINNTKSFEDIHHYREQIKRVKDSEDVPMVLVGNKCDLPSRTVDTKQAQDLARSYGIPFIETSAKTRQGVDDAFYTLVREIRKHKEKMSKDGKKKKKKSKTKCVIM

Row | IC50 (KRAS G12C) | IC50 (KRAS_G12C pERK) | IC50 ([1]; Homo sapiens) | Human whole blood stability at 4 hr [2] | IC50 (KRAS_G12C pERK; Homo sapiens, 4 h) | IC50 [1] | Compound
1 | ≤ 50 nM | ≤ 50 nM | ≤ 50 nM | †† (WBS >70% but ≤90%) |  |  | C=CC(=O)N1CCC(n2nnc3c(O[C@@H](C)[C@@H]4CCCN4C)nc4c(F)c(-c5cccc6cccc(C#N)c56)c(C)cc4c32)CC1 (single isomer, unassigned) [Example 11b]
2 | ≤ 50 nM |  | 50 to 100 nM | †† (WBS >70% but ≤90%) | ≤ 50 nM |  | C=CC(=O)N1CC[C@H](n2nnc3c(O[C@@H](C)[C@@H]4CCCN4C)nc4c(F)c(-c5cccc6c5c(CC#N)nn6C)c(C)cc4c32)C[C@H]1C (single isomer, unassigned) [Example 28b]
3 | ≤ 50 nM |  | 100 to 1000 nM | †† (WBS >70% but ≤90%) | ≤ 50 nM |  | C=C(F)C(=O)N1CC[C@H](n2cnc3c(O[C@@H](C)[C@@H]4CCCN4C)nc4c(F)c(-c5cccc(C)c5Cl)c(C)cc4c32)C[C@H]1CC#N [Example 13, 2-((2S,4S)-4-(7-(2-chloro-3-methylphenyl)-6-fluoro-8-methyl-4-((S)-1-((S)-1-methylpyrrolidin-2-yl)ethoxy)-1H-imidazo[4,5-c]quinolin-1-yl)-1-(2-fluoroacryloyl)piperidin-2-yl)acetonitrile]
4 | ≤ 50 nM |  | 50 to 100 nM | †† (WBS >70% but ≤90%) | ≤ 50 nM |  | C=CC(=O)N1CC[C@H](n2nnc3c(O[C@@H](C)[C@@H]4CCCN4C)nc4c(F)c(-c5cccc6c5c(CC#N)cn6C)c(C)cc4c32)C[C@H]1C (single isomer, unassigned) [Example 31b]
5 | ≤ 50 nM |  | ≤ 50 nM | †† (WBS >70% but ≤90%) | ≤ 50 nM |  | C=CC(=O)N1CCC(n2nnc3c(O[C@@H](C)[C@@H]4CCCN4C)nc4c(F)c(-c5cccc6c5c(CC#N)cn6C)c(C)cc4c32)CC1 (single isomer, unassigned) [Example 32b]
6 | ≤ 50 nM |  | ≤ 50 nM | ††† (WBS >90%) |  |  | COC/C=C/C(=O)N1CC[C@H](n2nnc3c(O[C@@H](C)[C@@H]4CCCN4C)nc4c(F)c(-c5c(F)cccc5OC)c(C)cc4c32)C[C@H]1CC#N (single isomer, unassigned) [Example 34b]
7 | ≤ 50 nM | ≤ 50 nM |  | †† (WBS >70% but ≤90%) |  | 50 to 100 nM | COC/C=C/C(=O)N1CC[C@H](n2nnc3c(O[C@@H](C)[C@@H]4CCCN4C)nc4c(F)c(-c5cnc(C)c6ccccc56)c(C)cc4c32)C[C@H]1CC#N (single isomer, unassigned) [Example 26b]

Continued, molecule first:

Row | Compound | IC50 (KRAS G12C) | IC50 (KRAS_G12C pERK) | IC50 ([1]; Homo sapiens) | Human whole blood stability at 4 hr [2] | IC50 (KRAS_G12C pERK; Homo sapiens, 4 h) | IC50 [1]
8 | Cc1cc2c(nc(O[C@@H](C)[C@@H]3CCCN3C)c3nnn(C4CCN(C(=O)/C=C/CF)CC4)c32)c(F)c1-c1cccc2cccc(C#N)c12 (single isomer, unassigned) [Example 16b] | ≤ 50 nM | ≤ 50 nM | 50 to 100 nM | ††† (WBS >90%) |  | 
9 | COC/C=C/C(=O)N1CC[C@H](n2nnc3c(N4CC(C)(N(C)C)C4)nc4c(Cl)c(-c5ccc(F)c6cccnc56)c(Cl)cc4c32)C[C@H]1CC#N (single isomer, unassigned) [Example 18a] | ≤ 50 nM |  | 100 to 1000 nM | ††† (WBS >90%) | ≤ 50 nM | 
10 | COC/C=C/C(=O)N1CC[C@H](n2nnc3c(N4CC(C)(N(C)C)C4)nc4c(F)c(-c5ccc(F)c6cccnc56)c(C(F)(F)F)cc4c32)C[C@H]1CC#N (single isomer, unassigned) [Example 20] | ≤ 50 nM |  | 100 to 1000 nM | ††† (WBS >90%) | ≤ 50 nM | 
11 | C=CC(=O)N1CCC(n2nnc3c(O[C@@H](C)[C@@H]4CCCN4C)nc4c(F)c(-c5ccc(F)c6cccnc56)c(C(F)(F)F)cc4c32)CC1 (single isomer, unassigned) [Example 5a] | ≤ 50 nM |  | 50 to 100 nM | †† (WBS >70% but ≤90%) | ≤ 50 nM | 
12 | CN(C)C1(C)CN(c2nc3c(F)c(-c4ccc(F)c5cccnc45)c(C(F)(F)F)cc3c3c2nnn3[C@H]2CCN(C(=O)/C=C/CF)[C@H](CC#N)C2)C1 (single isomer, unassigned) [Example 1a] | ≤ 50 nM |  | ≤ 50 nM | ††† (WBS >90%) | ≤ 50 nM | 

Source: patent US12441727B2, “Tricyclic compounds as inhibitors of KRAS” (Incyte Corporation, priority 2021, dated 2025)
